From patent publication US11066396B2 (priority 2016, dated 2021)

Key:
HDAC1 = HDAC1 (Homo sapiens (Human), UniProt Q13547); settings: read-out: HDAC1 IC50
HDAC8 = HDAC8 (Homo sapiens (Human), UniProt Q9BY41); settings: read-out: HDAC8 IC50
HDAC8, sequence (Q9BY41 whole entry): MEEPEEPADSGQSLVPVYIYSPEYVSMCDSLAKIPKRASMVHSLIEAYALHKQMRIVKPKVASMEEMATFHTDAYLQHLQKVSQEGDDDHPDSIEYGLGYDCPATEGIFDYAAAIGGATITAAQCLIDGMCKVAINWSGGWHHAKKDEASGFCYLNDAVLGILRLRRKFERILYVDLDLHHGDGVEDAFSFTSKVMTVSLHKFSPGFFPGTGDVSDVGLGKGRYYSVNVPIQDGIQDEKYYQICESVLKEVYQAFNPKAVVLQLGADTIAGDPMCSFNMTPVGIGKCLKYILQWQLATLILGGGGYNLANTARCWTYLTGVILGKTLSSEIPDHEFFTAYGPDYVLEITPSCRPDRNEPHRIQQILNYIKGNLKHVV

HDAC1, sequence (Q13547 whole entry): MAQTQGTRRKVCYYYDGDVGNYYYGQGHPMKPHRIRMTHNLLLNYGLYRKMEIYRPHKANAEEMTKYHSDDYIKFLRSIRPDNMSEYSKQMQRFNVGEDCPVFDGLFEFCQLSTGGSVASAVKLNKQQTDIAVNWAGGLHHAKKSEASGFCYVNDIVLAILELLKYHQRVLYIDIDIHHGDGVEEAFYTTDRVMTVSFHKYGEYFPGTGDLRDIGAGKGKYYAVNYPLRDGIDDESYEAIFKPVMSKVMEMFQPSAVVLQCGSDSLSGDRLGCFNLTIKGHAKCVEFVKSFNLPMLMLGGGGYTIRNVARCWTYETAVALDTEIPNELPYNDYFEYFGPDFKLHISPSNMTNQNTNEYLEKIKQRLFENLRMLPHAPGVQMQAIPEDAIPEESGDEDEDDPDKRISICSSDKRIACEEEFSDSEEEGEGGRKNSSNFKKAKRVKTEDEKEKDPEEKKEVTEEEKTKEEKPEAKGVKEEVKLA

O=C1NCCCCC1NCc1ccc(-c2noc(C(F)(F)F)n2)cn1 (racemic) [Example 377, 3-[({5-[5-(trifluoromethyl)-1,2,4-oxadiazol-3-yl]pyridin-2-yl}methyl)amino]azepan-2-one]
IC50 (HDAC1): 7.3 µM
IC50 (HDAC8): 3.3 µM

O=C1CCC(NCc2ccc(-c3noc(C(F)(F)F)n3)cn2)c2ccccc2N1 (racemic) [Example 381, 5-[({5-[5-(trifluoromethyl)-1,2,4-oxadiazol-3-yl]pyridin-2-yl}methyl)amino]-1,3,4,5-tetrahydro-2H-1-benzazepin-2-one]
IC50 (HDAC1): 0.52 µM
IC50 (HDAC8): 3.9 µM

CC(C(=O)N(Cc1ccc(-c2noc(C(F)(F)F)n2)cn1)c1cccc(F)c1)n1cccn1 (racemic) [Example 389, N-(3-fluorophenyl)-2-(1H-pyrazol-1-yl)-N-({5-[5-(trifluoromethyl)-1,2,4-oxadiazol-3-yl]pyridin-2-yl}methyl)propanamide]
IC50 (HDAC1): 0.3 µM
IC50 (HDAC8): 1.6 µM

Cc1nccn1C(C)C(=O)N(Cc1ccc(-c2noc(C(F)(F)F)n2)cn1)c1cccc(F)c1 (racemic) [Example 390, N-(3-fluorophenyl)-2-(2-methyl-1H-imidazol-1-yl)-N-({5-[5-(trifluoromethyl)-1,2,4-oxadiazol-3-yl]pyridin-2-yl}methyl)propanamide]
IC50 (HDAC1): 0.43 µM
IC50 (HDAC8): 1.7 µM

O=C(CC1CCS(=O)(=O)C1)N(Cc1ccc(-c2noc(C(F)(F)F)n2)cn1)c1cccc(F)c1 (racemic) [Example 398, 2-(1,1-dioxidotetrahydrothiophen-3-yl)-N-(3-fluorophenyl)-N-({5-[5-(trifluoromethyl)-1,2,4-oxadiazol-3-yl]pyridin-2-yl}methyl)acetamide]
IC50 (HDAC1): 0.41 µM
IC50 (HDAC8): 2.3 µM

CN1CC(C(=O)N(Cc2ccc(-c3noc(C(F)(F)F)n3)cn2)c2cccc(F)c2)CCC1=O (racemic) [Example 402, N-(3-fluorophenyl)-1-methyl-6-oxo-N-({5-[5-(trifluoromethyl)-1,2,4-oxadiazol-3-yl]pyridin-2-yl}methyl)piperidine-3-carboxamide]
IC50 (HDAC1): 0.34 µM
IC50 (HDAC8): 2.6 µM

CN1CCC(C(=O)N(Cc2ccc(-c3noc(C(F)(F)F)n3)cn2)c2cccc(F)c2)C1 (racemic) [Example 403, N-(3-fluorophenyl)-1-methyl-N-({5-[5-(trifluoromethyl)-1,2,4-oxadiazol-3-yl]pyridin-2-yl}methyl)pyrrolidine-3-carboxamide]
IC50 (HDAC1): 0.25 µM
IC50 (HDAC8): 2 µM

O=C(C1CCCS(=O)(=O)C1)N(Cc1ccc(-c2noc(C(F)(F)F)n2)cn1)c1cccc(F)c1 (racemic) [Example 405, N-(3-fluorophenyl)-N-({5-[5-(trifluoromethyl)-1,2,4-oxadiazol-3-yl]pyridin-2-yl}methyl)tetrahydro-2H-thiopyran-3-carboxamide 1,1-dioxide]
IC50 (HDAC1): 0.22 µM
IC50 (HDAC8): 1.6 µM

O=C1N(CC2CCOCC2)CC(c2ccccc2)N1c1ccc(-c2noc(C(F)(F)F)n2)cc1 (racemic) [Example 422, 4-phenyl-1-(tetrahydro-2H-pyran-4-ylmethyl)-3-{4-[5-(trifluoromethyl)-1,2,4-oxadiazol-3-yl]phenyl}imidazolidin-2-one]
IC50 (HDAC1): 3.4 µM
IC50 (HDAC8): 4 µM

FC(COc1cc(-c2noc(C(F)(F)F)n2)ccn1)CN1CCOCC1 (racemic) [Example 427, 4-[2-fluoro-3-({4-[5-(trifluoromethyl)-1,2,4-oxadiazol-3-yl]pyridin-2-yl}oxy)propyl]morpholine]
IC50 (HDAC1): 5.1 µM
IC50 (HDAC8): 1 µM

CC(C)N1CCC(NCc2ccc(-c3noc(C(F)(F)F)n3)cn2)C1=O (racemic) [Example 435, 1-(1-methylethyl)-3-[({5-[5-(trifluoromethyl)-1,2,4-oxadiazol-3-yl]pyridin-2-yl}methyl)amino]pyrrolidin-2-one]
IC50 (HDAC1): 4.4 µM
IC50 (HDAC8): 4.6 µM

O=C1CC(NCc2ccc(-c3noc(C(F)(F)F)n3)cn2)CCN1 (racemic) [Example 437, 4-[({5-[5-(trifluoromethyl)-1,2,4-oxadiazol-3-yl]pyridin-2-yl}methyl)amino]piperidin-2-one]
IC50 (HDAC1): 5.4 µM
IC50 (HDAC8): 5.1 µM

CN1CCOC(CNCc2ccc(-c3noc(C(F)(F)F)n3)cn2)C1 (racemic) [Example 452, 1-(4-methylmorpholin-2-yl)-N-({5-[5-(trifluoromethyl)-1,2,4-oxadiazol-3-yl]pyridin-2-yl}methyl)methanamine]
IC50 (HDAC1): 2.8 µM
IC50 (HDAC8): 2.4 µM

O=C1CCC(c2ccccc2)N1c1ncc(-c2noc(C(F)(F)F)n2)cc1F (centres unmarked) [Example 5, 1-(3-Fluoro-5-(5-(trifluoromethyl)-1,2,4-oxadiazol-3-yl)pyridin-2-yl)-5-phenylpyrrolidin-2-one]
IC50 (HDAC1): 2.3 µM
IC50 (HDAC8): 13 µM

O=C1CC[C@@H](c2nc3ccccc3[nH]2)N1c1ccc(-c2noc(C(F)(F)F)n2)cc1 [Example 21, (S)-5-(1H-Benzo[d]imidazol-2-yl)-1-(4-(5-(trifluoromethyl)-1,2,4-oxadiazol-3-yl)phenyl)pyrrolidin-2-one]
IC50 (HDAC1): 0.11 µM
IC50 (HDAC8): 0.66 µM

O=C1CC[C@@H](c2nc3ccccc3o2)N1c1ccc(-c2noc(C(F)(F)F)n2)cc1F [Example 22, (S)-5-(Benzo[d]oxazol-2-yl)-1-(2-fluoro-4-(5-(trifluoromethyl)-1,2,4-oxadiazol-3-yl)phenyl)pyrrolidin-2-one]
IC50 (HDAC1): 0.032 µM
IC50 (HDAC8): 0.35 µM

O=C1CCC[C@@H](c2nc3ccccc3s2)N1c1ccc(-c2noc(C(F)(F)F)n2)cc1 [Example 25, (S)-6-(Benzo[d]thiazol-2-yl)-1-(4-(5-(trifluoromethyl)-1,2,4-oxadiazol-3-1)phenyl)piperidin-2-one]
IC50 (HDAC1): 0.22 µM
IC50 (HDAC8): 0.74 µM

FC(F)(F)c1nc(-c2ccc(N[C@@H]3CCCC[C@H]3c3ccccc3)nc2)no1 [Example 26, N-((1R,2S)-2-Phenylcyclohexyl)-5-(5-(trifluoromethyl)-1,2,4-oxadiazol-3-yl)pyridin-2-amine]
IC50 (HDAC1): 4.6 µM
IC50 (HDAC8): 26 µM

FC(F)(F)c1nc(-c2ccc(CN(c3ccccn3)c3ccccn3)cc2)no1 [Example 27, N-(Pyridin-2-yl)-N-(4-(5-(trifluoromethyl)-1,2,4-oxadiazol-3-yl)benzyl)pyridin-2-amine]
IC50 (HDAC1): 3.7 µM
IC50 (HDAC8): 4.8 µM

O=c1ccc2ccccc2n1Cc1ccc(-c2noc(C(F)(F)F)n2)cc1 [Example 28, 1-(4-(5-(Trifluoromethyl)-1,2,4-oxadiazol-3-yl)benzyl)quinolin-2(1H)-one]
IC50 (HDAC1): 0.76 µM
IC50 (HDAC8): 1.6 µM

Cc1nc2cc(F)ccc2n1Cc1ccc(-c2noc(C(F)(F)F)n2)cc1F [Example 29, 3-(3-Fluoro-4-((5-fluoro-2-methyl-1H-benzo[d]imidazol-1-yl)methyl)phenyl)-5-(trifluoromethyl)-1,2,4-oxadiazole]
IC50 (HDAC1): 1.6 µM
IC50 (HDAC8): 8.2 µM

O=C(N1CCOCC1)N(Cc1ccc(-c2noc(C(F)(F)F)n2)cc1)c1cccc(C(F)(F)F)c1 [Example 32, N-(4-(5-(Trifluoromethyl)-1,2,4-oxadiazol-3-yl)benzyl)-N-(3-(trifluoromethyl)phenyl)morpholine-4-carboxamide]
IC50 (HDAC1): 0.44 µM
IC50 (HDAC8): 2.3 µM

CN1CCN(c2ccc(-c3noc(C(F)(F)F)n3)cc2)C(c2ccccc2)C1 (centres unmarked) [Example 33, 3-(4-(4-Methyl-2-phenylpiperazin-1-yl)phenyl)-5-(trifluoromethyl)-1,2,4-oxadiazole]
IC50 (HDAC1): 5.3 µM
IC50 (HDAC8): 3.9 µM

O=C1COC[C@@H](c2nc(-c3ccccn3)no2)N1c1ccc(-c2noc(C(F)(F)F)n2)cc1 [Example 34, (S)-5-(3-(Pyridin-2-yl)-1,2,4-oxadiazol-5-yl)-4-(4-(5-(trifluoromethyl)-1,2,4-oxadiazol-3-yl)phenyl)morpholin-3-one]
IC50 (HDAC1): 0.064 µM
IC50 (HDAC8): 0.28 µM

O=C1C(C2CCOCC2)NC[C@@H](c2cc(F)cc(F)c2)N1c1ccc(-c2noc(C(F)(F)F)n2)cn1 (stereo partly drawn) [Example 38, (6R)-6-(3,5-difluorophenyl)-3-(tetrahydro-2H-pyran-4-yl)-1-(5-(5-(trifluoromethyl)-1,2,4-oxadiazol-3-yl)pyridin-2-yl)piperazin-2-one]
IC50 (HDAC1): 4.3 µM
IC50 (HDAC8): 16 µM

Cc1noc([C@@H]2COCC(=O)N2c2ccc(-c3noc(C(F)(F)F)n3)cc2)n1 [Example 47, (S)-5-(3-methyl-1,2,4-oxadiazol-5-yl)-4-(4-(5-(trifluoromethyl)-1,2,4-oxadiazol-3-yl)phenyl)morpholin-3-one]
IC50 (HDAC1): 1.5 µM
IC50 (HDAC8): 3 µM

CC(C)c1ncc(C(=O)N(Cc2ccc(-c3noc(C(F)(F)F)n3)cn2)c2cccc(F)c2)cn1 [Example 53, N-(3-fluorophenyl)-2-isopropyl-N-((5-(5-(trifluoromethyl)-1,2,4-oxadiazol-3-yl)pyridin-2-yl)methyl)pyrimidine-5-carboxamide]
IC50 (HDAC1): 0.17 µM
IC50 (HDAC8): 1.8 µM

Cc1nccnc1C(=O)N(Cc1ccc(-c2noc(C(F)(F)F)n2)cn1)c1cccc(F)c1 [Example 56, N-(3-fluorophenyl)-3-methyl-N-((5-(5-(trifluoromethyl)-1,2,4-oxadiazol-3-yl)pyridin-2-yl)methyl)pyrazine-2-carboxamide]
IC50 (HDAC1): 0.25 µM
IC50 (HDAC8): 3.1 µM

Cc1cc(CC(=O)N(Cc2ccc(-c3noc(C(F)(F)F)n3)cn2)c2cccc(F)c2)on1 [Example 59, N-(3-fluorophenyl)-2-(3-methylisoxazol-5-yl)-N-((5-(5-(trifluoromethyl)-1,2,4-oxadiazol-3-yl)pyridin-2-yl)methyl)acetamide]
IC50 (HDAC1): 0.21 µM
IC50 (HDAC8): 1.5 µM

Cc1nonc1CC(=O)N(Cc1ccc(-c2noc(C(F)(F)F)n2)cn1)c1cccc(F)c1 [Example 62, N-(3-fluorophenyl)-2-(4-methyl-1,2,5-oxadiazol-3-yl)-N-((5-(5-(trifluoromethyl)-1,2,4-oxadiazol-3-yl)pyridin-2-yl)methyl)acetamide]
IC50 (HDAC1): 0.48 µM
IC50 (HDAC8): 3.5 µM

O=C(N(Cc1ccc(-c2noc(C(F)(F)F)n2)cn1)c1cccc(F)c1)C1(CN2CCOCC2)CC1 [Example 65, N-(3-fluorophenyl)-1-(morpholinomethyl)-N-((5-(5-(trifluoromethyl)-1,2,4-oxadiazol-3-yl)pyridin-2-yl)methyl)cyclopropane-1-carboxamide]
IC50 (HDAC1): 0.24 µM
IC50 (HDAC8): 3 µM
